Test results from patent US9302999B2, “Substituted triazoles as herbicides” (E. I. DU PONT DE NEMOURS AND COMPANY, priority 2012, dated 2016).

Experiments:
Type in all cases: in vivo
[1] = system: ryegrass, Italian (Italian ryegrass, Lolium multiflorum); experiment: Test C pre-/postemergence: ryegrass, Italian
Summary of the method: (§1)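 Preemergence on seeds in loam/sand, postemergence on 2–18 cm (1–4-leaf) plants in peat-based medium; compounds in non-phytotoxic solvent with surfactant. After 13–15 days in greenhouse, visual rating versus controls, 0 (no effect) to 100 (complete control).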

[2] = system: velvetleaf (Abutilon theophrasti); experiment: Test A pre-/postemergence: velvetleaf
Summary of the method: (§2)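 Seeds were sown in loam/sand blend and sprayed preemergence (directed soil spray) and, simultaneously, postemergence at 2–10 cm, one- to two-leaf stage, using compounds in non-phytotoxic solvent with surfactant. After ~10 days in greenhouse, injury was rated visually versus untreated controls, 0 (no effect) to 100 (complete control).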

[3] = system: morningglory (Ipomoea coccinea); experiment: Test C pre-/postemergence: morningglory
Summary of the method: as §1

corn (Zea mays) = experiment: Test C pre-/postemergence: corn
Summary of the method: as §1

[4] = system: wheat (Triticum aestivum); experiment: Test A pre-/postemergence: wheat
Summary of the method: as §2

[5] = system: barnyardgrass (Echinochloa crus-galli); experiment: Test A pre-/postemergence: barnyardgrass
Summary of the method: as §2

[6] = system: nutsedge, yellow (yellow nutsedge, Cyperus esculentus); experiment: Test C pre-/postemergence: nutsedge, yellow
Summary of the method: as §1

[7] = system: morningglory (Ipomoea spp.); experiment: Test A pre-/postemergence: morningglory
Summary of the method: as §2

[8] = system: lambsquarters (Chenopodium album); experiment: Test C pre-/postemergence: lambsquarters
Summary of the method: as §1

[9] = system: chickweed (common chickweed, Stellaria media); experiment: Test C postemergence: chickweed
Summary of the method: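 Greenhouse pot test; foliar postemergence treatment at 1- to 4-leaf stage. Rated visually at 13 to 15 days on a 0–100 control scale relative to untreated plants.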

[10] = system: pigweed (Amaranthus retroflexus); experiment: Test A pre-/postemergence: pigweed
Summary of the method: as §2

[11] = system: blackgrass (Alopecurus myosuroides); experiment: Test C pre-/postemergence: blackgrass
Summary of the method: as §1

[12] = Postemergence, 31 g ai/ha, scale 0 to 100 (0 no effect, 100 complete control)
[13] = Postemergence, 62 g ai/ha, scale 0 to 100 (0 no effect, 100 complete control)
[14] = Postemergence, 125 g ai/ha, scale 0 to 100, 0 no effect, 100 complete control
[15] = Postemergence, 250 g ai/ha, scale 0 to 100 (0 no effect, 100 complete control)
[16] = Preemergence, 31 g ai/ha, scale 0 (no effect) to 100 (complete control)
[17] = Preemergence, 62 g ai/ha, scale of 0 to 100, 0 is no effect, 100 is complete control
[18] = Preemergence, 125 g ai/ha, scale 0 to 100, 0 no effect, 100 complete control
[19] = Preemergence, 250 g ai/ha, scale 0 to 100, 0 no effect, 100 complete control
[20] = Postemergence, 125 g ai/ha, 0 to 100 scale, 0 is no effect, 100 is complete control
[21] = Postemergence, 500 g ai/ha, 0 to 100 scale, 0 is no effect, 100 is complete control
[22] = Preemergence, 125 g ai/ha, 0 to 100 scale where 0 is no effect and 100 is complete control
[23] = Preemergence, 500 g ai/ha, 0 to 100 scale (0 no effect, 100 complete control)
[24] = Postemergence, 250 g ai/ha, scale 0 to 100

CCOc1nn(-c2ccc(F)cc2)nc1Cc1ccnc(C(F)F)c1 [Compound 195]
Plant response rating, Ryegrass, Italian [1, 12]: 25
Plant response rating, Ryegrass, Italian [1, 13]: 55
Plant response rating, Ryegrass, Italian [1, 14]: 60
Plant response rating, Ryegrass, Italian [1, 15]: 60
Plant response rating, Ryegrass, Italian [1, 16]: 50
Plant response rating, Ryegrass, Italian [1, 17]: 80
Plant response rating, Ryegrass, Italian [1, 18]: 90
Plant response rating, Ryegrass, Italian [1, 19]: 90
Plant response rating, Velvetleaf [2, 20]: 90
Velvetleaf plant response rating [2, 21]: 100
Plant response rating, Velvetleaf [2, 22]: 70
Plant response rating, Velvetleaf [2, 23]: 80
Plant response rating, Morningglory [3, 12]: 65
Plant response rating, Morningglory [3, 13]: 90
Plant response rating, Morningglory [3, 14]: 90
Plant response rating, Morningglory [3, 15]: 95
Plant response rating, Morningglory [3, 16]: 30
Plant response rating, Morningglory [3, 17]: 50
Plant response rating, Morningglory [3, 18]: 75
Plant response rating, Morningglory [3, 19]: 90
Plant response rating, Corn (corn (Zea mays); [12]): 60
Plant response rating, Corn (corn (Zea mays); [13]): 75
Plant response rating, Corn (corn (Zea mays); [24]): 80
Plant response rating, Corn (corn (Zea mays); [16]): 0
Plant response rating, Corn (corn (Zea mays); [17]): 5
Plant response rating, Corn (corn (Zea mays); [18]): 15
Plant response rating, Corn (corn (Zea mays); [19]): 35
Plant response rating, Wheat [4, 20]: 30
Wheat plant response rating [4, 21]: 30
Plant response rating, Wheat [4, 22]: 20
Plant response rating, Wheat [4, 23]: 50
Plant response rating, Barnyardgrass [5, 20]: 90
Barnyardgrass plant response rating [5, 21]: 90
Plant response rating, Barnyardgrass [5, 22]: 90
Plant response rating, Barnyardgrass [5, 23]: 100
Plant response rating, Nutsedge, Yellow [6, 12]: 10
Plant response rating, Nutsedge, Yellow [6, 13]: 20
Plant response rating, Nutsedge, Yellow [6, 14]: 25
Plant response rating, Nutsedge, Yellow [6, 15]: 25
Plant response rating, Nutsedge, Yellow [6, 16]: 0
Plant response rating, Nutsedge, Yellow [6, 17]: 0
Plant response rating, Nutsedge, Yellow [6, 18]: 5
Plant response rating, Nutsedge, Yellow [6, 19]: 80
Plant response rating, Morningglory [7, 20]: 80
Morningglory plant response rating [7, 21]: 100
Plant response rating, Morningglory [7, 22]: 50
Plant response rating, Morningglory [7, 23]: 60
Plant response rating, Lambsquarters [8, 12]: 95
Plant response rating, Lambsquarters [8, 13]: 95
Plant response rating, Lambsquarters [8, 14]: 95
Plant response rating, Lambsquarters [8, 15]: 95
Plant response rating, Lambsquarters [8, 16]: 55
Plant response rating, Lambsquarters [8, 17]: 80
Plant response rating, Lambsquarters [8, 18]: 90
Plant response rating, Lambsquarters [8, 19]: 95
Plant response rating, Chickweed ([9]; 31 g ai/ha, scale 0 to 100 (0 no effect, 100 complete control)): 95
Plant response rating, Chickweed ([9]; 62 g ai/ha, scale 0 to 100 (0 no effect, 100 complete control)): 95
Plant response rating, Chickweed ([9]; 125 g ai/ha, scale 0 to 100, 0 no effect, 100 complete control): 98
Plant response rating, Chickweed ([9]; 250 g ai/ha, scale 0 to 100): 98
Plant response rating, Pigweed [10, 20]: 100
Pigweed plant response rating [10, 21]: 100
Plant response rating, Pigweed [10, 22]: 100
Plant response rating, Pigweed [10, 23]: 100
Plant response rating, Blackgrass [11, 12]: 45
Plant response rating, Blackgrass [11, 13]: 70
Plant response rating, Blackgrass [11, 14]: 80
Plant response rating, Blackgrass [11, 24]: 80
Plant response rating, Blackgrass [11, 16]: 90
Plant response rating, Blackgrass [11, 17]: 90
Plant response rating, Blackgrass [11, 18]: 90
Plant response rating, Blackgrass [11, 19]: 90
